According to patent US20260183399A1, “METHOD FOR MODULATING KINASE ACTIVITY AND USE THEREOF” (CENTER FOR EXCELLENCE IN MOLECULAR CELL SCIENCE, CHINESE …, priority 2022, published 2026):

Assays:
[1] = system: AMPK α-catalytic subunit phosphorylation in 293T cells; assay: Metabolite treatment of glucose-starved 293T cells, Western blot of AMPK phosphorylation; format: cell-based; conditions: glucose starvation 2 hours
Description: Cells were subjected to glucose starvation treatment using glucose free culture medium for 2 hours. The corresponding metabolites were added to the culture medium according to the instructions shown in FIG. 1C and FIG. 1D, so that their concentration in the culture medium reached the labeled level, if there was no labeling, the concentration of metabolites in the culture medium was […]. After treatment, cells were collected to prepare lysis buffer, and the changes in specific proteins and phosphorylation of specific sites were detected by Western blot.
When the expression and function of these metabolic enzymes are inhibited, their corresponding products are decreased. Therefore, we speculate that there may be a mechanism by which AMPK is regulated by metabolite molecules in the glycolytic metabolic pathway, and the activation level of AMPK is related to metabolite content. To verify this hypothesis, we added different doses of exogenous 3-phosphoglycerate (3-PG) to 293T cells subjected to glucose starvation treatment (activation of AMPK signaling pathway). […] After treatment, cells were collected to prepare lysate, and the changes in specific proteins and the changes in phosphorylation sites of AMPK α-catalytic subunit were detected by Western blot.

LKB1 kinase = target: T1, LKB1 kinase (Homo sapiens, UniProt Q15831); assay: In vitro kinase experiment with LKB1 kinase (excluding STRAD1 and MO25) and His-AMPK α1; format: biochemical; conditions: metabolite 100 μM; FIG. 1J
T1 construct: the general method says FLAG-LKB1 instead) (N); made in house; host or cells: HEK293T (293T) cells, transfected; immunoprecipitation
T1 sequence (Q15831 1-433): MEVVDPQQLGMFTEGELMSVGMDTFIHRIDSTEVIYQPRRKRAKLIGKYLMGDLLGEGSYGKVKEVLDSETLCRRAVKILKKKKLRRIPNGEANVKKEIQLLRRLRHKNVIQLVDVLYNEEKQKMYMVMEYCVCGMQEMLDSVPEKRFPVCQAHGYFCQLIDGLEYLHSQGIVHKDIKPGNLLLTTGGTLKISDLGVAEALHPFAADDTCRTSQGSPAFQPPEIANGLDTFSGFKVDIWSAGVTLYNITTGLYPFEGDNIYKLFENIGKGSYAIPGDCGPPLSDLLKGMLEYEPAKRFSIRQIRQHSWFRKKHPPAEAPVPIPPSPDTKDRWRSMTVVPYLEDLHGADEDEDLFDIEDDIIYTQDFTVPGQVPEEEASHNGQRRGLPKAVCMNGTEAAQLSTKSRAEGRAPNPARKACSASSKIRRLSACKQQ
Description: (§1) The final reaction system for kinase experiment was: 50 mM Tris HCl, 10 mM MgCl2, 1 mM DTT, and 100 μM ATP. HEK293T cells were co-transfected with equal amounts of GST-LKB1, FLAG-STRAD, MYC-MO25 plasmids or solely transfected with FLAG-LKB1 plasmid. The cells were collected, processed for immunoprecipitation using GST beads or FLAG beads, washed three times with cell lysis buffer containing NP-40, and washed twice with kinase reaction buffer. The His-AMPK protein was induced and purified using E. coli BL21 competent cells. The kinase was incubated with metabolites at 100 μM at room temperature for 15 minutes before reaction, then added with reaction buffer and His-AMPK protein, and reacted at […] for 30 minutes. The phosphorylation of AMPK protein was detected by Western blot.
The final reaction system for the kinase experiment was 50 mM Tris-HCl, 10 mM MgCl2, 1 mM DTT, and 100 μM ATP. […] The kinase complex was pre-incubated with metabolites at room temperature for 15 minutes before reaction. Then the reaction buffer and His-AMPK protein were added, and reacted at 37° C. for 30 minutes. The phosphorylation of AMPK protein was detected by Western blot.

[2] = target: T2, recombinant human PGK1 protein (Homo sapiens, UniProt P00558); assay: In vitro enzyme activity of PGK1 (ATP detection kit, IC50 inhibition curve); format: biochemical; conditions: S33 0, 1, 3, 5, 7, 10, 30 μM; 37° C. for 25 minutes; FIG. 1F
T2 construct: made in house; host or cells: Escherichia coli
T2 sequence (P00558 1-417): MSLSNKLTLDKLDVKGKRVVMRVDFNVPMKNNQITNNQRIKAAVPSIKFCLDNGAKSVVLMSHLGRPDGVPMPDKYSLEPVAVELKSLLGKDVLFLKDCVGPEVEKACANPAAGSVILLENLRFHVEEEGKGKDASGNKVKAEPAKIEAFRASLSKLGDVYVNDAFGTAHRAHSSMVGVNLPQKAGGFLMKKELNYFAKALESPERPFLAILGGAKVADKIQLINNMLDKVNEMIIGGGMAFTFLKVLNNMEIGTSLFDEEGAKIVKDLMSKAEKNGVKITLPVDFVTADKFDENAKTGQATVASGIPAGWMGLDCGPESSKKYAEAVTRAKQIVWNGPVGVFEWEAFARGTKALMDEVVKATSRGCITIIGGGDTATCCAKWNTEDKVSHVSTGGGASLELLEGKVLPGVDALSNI
Description: A substrate buffer mixture with a final concentration of 10 mM KH2PO4, pH7.0, 2 mM GAP, 0.6 mM β-NAD, 0.4 mM ADP, 10 mM MgSO4, 200 mM Glycine, and 0.01 μg/μL GAPDH was prepared. The purified hPGK1 recombinant protein was diluted to 0.2 ng/μL. Inhibitors were added to the protein and a concentration gradient was set up. Each reaction was added with 100 μl of substrate and a mixture of 100 μl hPGK1 protein and inhibitor, and reacted at 37° C. for 25 minutes. After centrifuged at 10000 rpm for 10 minutes at 4° C., 100 μl of supernatant was taken. In the ATP detection kit (Beyotime S0026), the ATP detection solution was diluted with ATP detection diluent at a ratio of 1:10. In a 96 well blank plate, each well was added with 100 μl of diluted detection solution, and let it stand at room temperature for 5 minutes, added with 100 μl of supernatant from enzyme activity reaction, and reacted for 5 seconds, and a microplate reader was used to read the fluorescence value. The relative enzyme activity was calculated based on fluorescence values and IC50 values were calculated using GraphPad nonlinear regression fitting.
The compound (S33, patent number: ZL201610826187. X) reported in the previous patent is a PGK1 inhibitor (FIG. 1E), and we determined the inhibitory activity of compound S33 on PGK1. […]

[3] = system: AMPK pathway (AMPK α-catalytic subunit and ACC1 phosphorylation) in HeLa and 293T cells; assay: S33 treatment of HeLa and 293T cells, Western blot of AMPK pathway; format: cell-based; conditions: 2, 5 and 10 μM, 2 hours, dose-dependent, FIG. 1G
Description: In order to investigate the regulatory effect of PGK1 inhibition on AMPK pathway, different concentrations of S33 (2, 5, and 10 μM, respectively) were added to the culture supernatants of HeLa and 293T cells, and treated for 2 hours. Cell lysate was collected and the changes in specific proteins and in AMPK α-catalytic subunit phosphorylation sites, as well as the phosphorylation of the classical substrate ACC1, downstream of the AMPK pathway, were detected by western blot.

[4] = target: T3, LKB1-STRAD1-MO25 kinase complex (Homo sapiens, UniProt Q15831); assay: In vitro kinase experiment with LKB1 kinase complex and His-AMPK α1; format: biochemical
T3 construct: GST (N); made in house; host or cells: HEK293T (293T) cells, co-transfected
T3 sequence (Q15831 1-433): T1 sequence (Q15831 1-433)
T3 sequence (Q7RTN6 1-431 partner): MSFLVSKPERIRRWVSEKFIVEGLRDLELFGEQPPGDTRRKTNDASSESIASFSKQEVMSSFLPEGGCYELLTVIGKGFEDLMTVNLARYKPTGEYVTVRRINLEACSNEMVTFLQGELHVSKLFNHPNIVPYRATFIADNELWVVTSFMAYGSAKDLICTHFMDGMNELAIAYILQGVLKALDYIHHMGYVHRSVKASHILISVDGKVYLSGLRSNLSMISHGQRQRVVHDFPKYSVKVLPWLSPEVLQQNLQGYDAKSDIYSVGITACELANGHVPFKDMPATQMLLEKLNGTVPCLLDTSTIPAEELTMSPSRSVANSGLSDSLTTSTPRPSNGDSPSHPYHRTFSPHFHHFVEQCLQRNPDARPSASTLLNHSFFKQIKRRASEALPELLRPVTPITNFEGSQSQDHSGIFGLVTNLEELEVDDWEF
T3 sequence (Q9Y376 1-341 partner): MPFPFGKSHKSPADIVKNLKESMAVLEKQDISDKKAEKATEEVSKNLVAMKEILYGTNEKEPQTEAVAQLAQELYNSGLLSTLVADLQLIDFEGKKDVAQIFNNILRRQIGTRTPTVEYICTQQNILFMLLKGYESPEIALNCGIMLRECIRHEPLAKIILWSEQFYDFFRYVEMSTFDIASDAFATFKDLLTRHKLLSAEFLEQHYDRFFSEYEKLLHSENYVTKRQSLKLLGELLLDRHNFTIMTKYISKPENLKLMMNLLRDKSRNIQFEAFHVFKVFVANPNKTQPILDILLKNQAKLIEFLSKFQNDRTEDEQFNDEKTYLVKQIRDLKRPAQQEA
Description: as §1
Given that LKB1 is a key upstream kinase that phosphorylates and activates the AMPK a subunit, we speculate that the aforementioned metabolites may affect the phosphorylation activation of AMPK a subunit by LKB1 kinase or LKB1 kinase complex. To verify this hypothesis, GST-LKB1, FLAG-STRAD1, and MYC-MO25 were co-transfected into 293T cells (2 μg of each expression plasmid, and transfected into about 7×10^6 cells). After 48 hours, cells were collected and lysed, and then the LKB1-STRAD1-MO25 kinase complex was subjected to glutathione-agarose bead affinity purification, and co-incubated with the recombinant His-AMPK α1 subunit expressed in E. coli for in vitro kinase experiments. The final reaction system for kinase experiment was: 50 mM Tris HCl, 10 mM MgCl2, 1 mM DTT, 100 μM ATP. At the same time, metabolites such as 3-phosphoglyceraldehyde (GAP) or 3-phosphoglycerate (3-PG) were added to 100 μM according to the diagram (as shown in FIG. 1H), or to a concentration of 50-400 μM as shown in the diagram (as shown in FIG. 1I). The kinase complex was pre-incubated with metabolites at room temperature for 15 minutes before reaction. Then the reaction buffer and His-AMPK protein were added, and reacted at 37° C. for 30 minutes. The phosphorylation of AMPK protein was detected by Western blot.

Compound | phosphorylation of AMPK α1 by LKB1 kinase (LKB1 kinase) | phosphorylation of AMPK α1 by LKB1 kinase complex ([4]; metabolite 100 μM, FIG. 1H) | also measured
O=C(O)[C@@H](CO)OP(=O)(O)O [2-phosphoglycerate] | significantly inhibit |  | AMPK α-catalytic subunit phosphorylation signaling ([1]; metabolite 200 μM, FIG. 1D): inhibitory effects
COc1cc2nc(N3CCC(N(C)C(=O)C4CCCO4)CC3)nc(N3CCOCC3)c2cc1Cl (stereo not drawn) [S33] |  |  | inhibitory activity of compound on PGK1 [2]: effective inhibitor of PGK1; ACC1 phosphorylation [3]: upregulate; AMPK α-catalytic subunit phosphorylation [3]: upregulate
O=CC(O)COP(=O)(O)O (stereo not drawn) [3-phosphoglyceraldehyde] | had no such effect | had no such effect | 
O=C(O)[C@H](O)COP(=O)(O)O [3-phosphoglycerate] | significantly inhibit | strongly inhibited | intracellular AMPK α-catalytic subunit phosphorylation signaling ([1]; metabolite 100-800 μM, FIG. 1C): significantly inhibited intracellular AMPK α-catalytic subunit phosphorylation signaling in a dose-dependent manner; phosphorylation of AMPK α1 by LKB1 kinase complex ([4]; metabolite 50-400 μM, FIG. 1I): inhibits the phosphorylation of AMPK α1 by LKB1 kinase complex in a dose-dependent manner
O=C(COP(=O)(O)O)[C@@H](O)[C@H](O)[C@H](O)COP(=O)(O)O [1,6-fructose diphosphate] | had no such effect |  | 
